Test results reported in patent US11053204B2, “Pyrimidinyloxy benzene derivatives as herbicides” (FMC Corporation, priority 2015, dated 2021).

Tests used:
Format in all cases: in vivo
[1] = tested on: oat, wild (wild oat Avena fatua); test: Test C preemergence, plant response rating
[2] = tested on: johnsongrass (Sorghum halepense); test: Test C preemergence, plant response rating
[3] = tested on: kochia (Kochia scoparia); test: Test C preemergence, plant response rating
[4] = tested on: galium (catchweed bedstraw, Galium aparine); test: Test C preemergence, plant response rating
[5] = tested on: surinam grass (Brachiaria decumbens); test: Test C preemergence, plant response rating
[6] = tested on: pigweed, palmer (palmer pigweed, Amaranthus palmeri); test: Test C preemergence, plant response rating
[7] = tested on: wild poinsettia (Euphorbia heterophylla); test: Test C preemergence, plant response rating
[8] = tested on: field violet (Viola arvensis); test: Test C postemergence, plant response rating; details: for Plant response rating, Field Violet: scale 0 to 100; for Field Violet plant response rating: scale 0 to 100 (0 no effect, 100 complete control)
Summary of the method: (§1)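 Pre-emergence: seeds sown in loam soil–sand blend or silt loam and sprayed with test chemicals in a non-phytotoxic solvent mixture with surfactant. Post-emergence: plants 2 to 18 cm (1- to 4-leaf stage) in peat-based potting medium, same formulation. Greenhouse 13 to 15 d; visual rating 0 (no effect) to 100 (complete control) versus controls.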

[9] = tested on: nightshade (eastern black nightshade, Solanum ptycanthum); test: Test C postemergence, plant response rating; details: for Plant response rating, Nightshade: scale 0 to 100; for Nightshade plant response rating: scale 0 to 100 (0 no effect, 100 complete control)
Summary of the method: as §1

[10] = tested on: buckwheat, wild (wild buckwheat, Polygonum convolvulus); test: Test C postemergence, plant response rating; details: for Plant response rating, Buckwheat, Wild: scale 0 to 100; for Buckwheat, Wild plant response rating: scale 0 to 100 (0 no effect, 100 complete control)
Summary of the method: as §1

[11] = tested on: surinam grass (Brachiaria decumbens); test: Test C postemergence, plant response rating; details: for Plant response rating, Surinam Grass: scale 0 to 100; for Surinam Grass plant response rating: scale 0 to 100 (0 no effect, 100 complete control)
Summary of the method: as §1

[12] = tested on: pigweed, palmer (palmer pigweed, Amaranthus palmeri); test: Test C postemergence, plant response rating; details: for Plant response rating, Pigweed, Palmer: scale 0 to 100; for Pigweed, Palmer plant response rating: scale 0 to 100 (0 no effect, 100 complete control)
Summary of the method: as §1

[13] = tested on: johnsongrass (Sorghum halepense); test: Test C postemergence, plant response rating; details: for Plant response rating, Johnsongrass: scale 0 to 100; for Johnsongrass plant response rating: scale 0 to 100 (0 no effect, 100 complete control)
Summary of the method: as §1

[14] = tested on: wild poinsettia (Euphorbia heterophylla); test: Test C postemergence, plant response rating; details: for Plant response rating, Poinsettia, Wild: scale 0 to 100; for Poinsettia, Wild plant response rating: scale 0 to 100 (0 no effect, 100 complete control)
Summary of the method: as §1

[15] = tested on: geranium, cutleaf (cutleaf geranium, Geranium dissectum); test: Test C postemergence, plant response rating; details: for Plant response rating, Geranium, Cutleaf: scale 0 to 100; for Geranium, Cutleaf plant response rating: scale 0 to 100 (0 no effect, 100 complete control)
Summary of the method: as §1

[16] = tested on: field poppy (Papaver rhoeas); test: Test C postemergence, plant response rating; details: for Plant response rating, Field Poppy: scale 0 to 100; for Field Poppy plant response rating: scale 0 to 100 (0 no effect, 100 complete control)
Summary of the method: as §1

[17] = tested on: speedwell (bird's-eye speedwell, Veronica persica); test: Test C postemergence, plant response rating; details: for Plant response rating, Speedwell: scale 0 to 100; for Speedwell plant response rating: scale 0 to 100 (0 no effect, 100 complete control)
Summary of the method: as §1

[18] = tested on: Canada thistle (Cirsium arvense); test: Test C postemergence, plant response rating; details: for Plant response rating, Canada Thistle: scale 0 to 100; for Canada Thistle plant response rating: scale 0 to 100 (0 no effect, 100 complete control)
Summary of the method: as §1

[19] = tested on: windgrass (Apera spica-venti); test: Test C postemergence, plant response rating; details: for Plant response rating, Windgrass: scale 0 to 100; for Windgrass plant response rating: scale 0 to 100 (0 no effect, 100 complete control)
Summary of the method: as §1

C=C(Br)COC(=O)c1c(Br)cccc1Oc1ncc(Cl)cn1 [Compound 61]
Plant response rating, Oat, Wild ([1]; 16 g ai/ha, scale 0 to 100): 0 | Plant response rating, Oat, Wild ([1]; 31 g ai/ha, scale 0 to 100): 0 | Plant response rating, Oat, Wild ([1]; 62 g ai/ha, scale 0 to 100): 5 | Plant response rating, Oat, Wild ([1]; 125 g ai/ha, scale of 0 to 100): 5 | Plant response rating, Johnsongrass ([2]; 16 g ai/ha, scale 0 to 100): 0 | Plant response rating, Johnsongrass ([2]; 31 g ai/ha, scale 0 to 100): 0 | Plant response rating, Johnsongrass ([2]; 62 g ai/ha, scale 0 to 100): 0 | Plant response rating, Johnsongrass ([2]; 125 g ai/ha, scale of 0 to 100): 20 | Plant response rating, Kochia ([3]; 16 g ai/ha, scale 0 to 100): 0 | Plant response rating, Kochia ([3]; 31 g ai/ha, scale 0 to 100): 5 | Plant response rating, Kochia ([3]; 62 g ai/ha, scale 0 to 100): 5 | Plant response rating, Kochia ([3]; 125 g ai/ha, scale of 0 to 100): 30 | Plant response rating, Galium ([4]; 16 g ai/ha, scale 0 to 100): 0 | Plant response rating, Galium ([4]; 31 g ai/ha, scale 0 to 100): 0 | Plant response rating, Galium ([4]; 62 g ai/ha, scale of 0 to 100): 10 | Plant response rating, Galium ([4]; 125 g ai/ha, scale of 0 to 100): 15 | Plant response rating, Surinam Grass ([5]; 16 g ai/ha, scale 0 to 100): 0 | Plant response rating, Surinam Grass ([5]; 31 g ai/ha, scale 0 to 100): 10 | Plant response rating, Surinam Grass ([5]; 62 g ai/ha, scale 0 to 100): 60 | Plant response rating, Surinam Grass ([5]; 125 g ai/ha, scale of 0 to 100): 25 | Plant response rating, Pigweed, Palmer ([6]; 16 g ai/ha, scale 0 to 100): 40 | Plant response rating, Pigweed, Palmer ([6]; 31 g ai/ha, scale 0 to 100): 50 | Plant response rating, Pigweed, Palmer ([6]; 62 g ai/ha, scale 0 to 100): 70 | Plant response rating, Pigweed, Palmer ([6]; 125 g ai/ha, scale of 0 to 100): 75 | Plant response rating, Poinsettia, Wild ([7]; 16 g ai/ha, scale 0 to 100): 0 | Plant response rating, Poinsettia, Wild ([7]; 31 g ai/ha, scale 0 to 100): 0 | Plant response rating, Poinsettia, Wild ([7]; 62 g ai/ha, scale 0 to 100): 0 | Plant response rating, Poinsettia, Wild ([7]; 125 g ai/ha, scale of 0 to 100): 0

CCCC(=O)c1c(Br)cccc1Oc1ncc(Cl)cn1 [Compound 75]
Plant response rating, Oat, Wild ([1]; 16 g ai/ha, scale 0 to 100): 0 | Plant response rating, Oat, Wild ([1]; 31 g ai/ha, scale 0 to 100): 0 | Plant response rating, Oat, Wild ([1]; 62 g ai/ha, scale 0 to 100): 0 | Plant response rating, Oat, Wild ([1]; 125 g ai/ha, scale of 0 to 100): 5 | Plant response rating, Field Violet ([8]; 16 g ai/ha): 80 | Plant response rating, Field Violet ([8]; 31 g ai/ha): 98 | Field Violet plant response rating ([8]; 62 g ai/ha): 98 | Field Violet plant response rating ([8]; 125 g ai/ha): 100 | Plant response rating, Nightshade ([9]; 16 g ai/ha): 75 | Plant response rating, Nightshade ([9]; 31 g ai/ha): 80 | Nightshade plant response rating ([9]; 62 g ai/ha): 85 | Nightshade plant response rating ([9]; 125 g ai/ha): 98 | Plant response rating, Buckwheat, Wild ([10]; 16 g ai/ha): 45 | Plant response rating, Buckwheat, Wild ([10]; 31 g ai/ha): 60 | Buckwheat, Wild plant response rating ([10]; 62 g ai/ha): 80 | Buckwheat, Wild plant response rating ([10]; 125 g ai/ha): 85 | Plant response rating, Surinam Grass ([11]; 16 g ai/ha): 10 | Plant response rating, Surinam Grass ([11]; 31 g ai/ha): 15 | Surinam Grass plant response rating ([11]; 62 g ai/ha): 20 | Surinam Grass plant response rating ([11]; 125 g ai/ha): 20 | Plant response rating, Pigweed, Palmer ([12]; 16 g ai/ha): 75 | Plant response rating, Pigweed, Palmer ([12]; 31 g ai/ha): 90 | Pigweed, Palmer plant response rating ([12]; 62 g ai/ha): 95 | Pigweed, Palmer plant response rating ([12]; 125 g ai/ha): 85 | Plant response rating, Johnsongrass ([13]; 16 g ai/ha): 5 | Plant response rating, Johnsongrass ([13]; 31 g ai/ha): 10 | Johnsongrass plant response rating ([13]; 62 g ai/ha): 10 | Johnsongrass plant response rating ([13]; 125 g ai/ha): 70 | Plant response rating, Poinsettia, Wild ([14]; 16 g ai/ha): 65 | Plant response rating, Poinsettia, Wild ([14]; 31 g ai/ha): 70 | Poinsettia, Wild plant response rating ([14]; 62 g ai/ha): 80 | Poinsettia, Wild plant response rating ([14]; 125 g ai/ha): 80 | Plant response rating, Geranium, Cutleaf ([15]; 16 g ai/ha): 30 | Plant response rating, Geranium, Cutleaf ([15]; 31 g ai/ha): 40 | Geranium, Cutleaf plant response rating ([15]; 62 g ai/ha): 35 | Geranium, Cutleaf plant response rating ([15]; 125 g ai/ha): 65 | Plant response rating, Field Poppy ([16]; 16 g ai/ha): 70 | Plant response rating, Field Poppy ([16]; 31 g ai/ha): 80 | Field Poppy plant response rating ([16]; 62 g ai/ha): 80 | Field Poppy plant response rating ([16]; 125 g ai/ha): 100 | Plant response rating, Speedwell ([17]; 16 g ai/ha): 90 | Plant response rating, Speedwell ([17]; 31 g ai/ha): 95 | Speedwell plant response rating ([17]; 62 g ai/ha): 100 | Speedwell plant response rating ([17]; 125 g ai/ha): 100 | Plant response rating, Canada Thistle ([18]; 16 g ai/ha): 70 | Plant response rating, Canada Thistle ([18]; 31 g ai/ha): 75 | Canada Thistle plant response rating ([18]; 62 g ai/ha): 75 | Canada Thistle plant response rating ([18]; 125 g ai/ha): 100 | Plant response rating, Windgrass ([19]; 16 g ai/ha): 0 | Plant response rating, Windgrass ([19]; 31 g ai/ha): 5 | Windgrass plant response rating ([19]; 62 g ai/ha): 10 | Windgrass plant response rating ([19]; 125 g ai/ha): 5 | Plant response rating, Johnsongrass ([2]; 16 g ai/ha, scale 0 to 100): 0 | Plant response rating, Johnsongrass ([2]; 31 g ai/ha, scale 0 to 100): 0 | Plant response rating, Johnsongrass ([2]; 62 g ai/ha, scale 0 to 100): 30 | Plant response rating, Johnsongrass ([2]; 125 g ai/ha, scale of 0 to 100): 70 | Plant response rating, Kochia ([3]; 16 g ai/ha, scale 0 to 100): 0 | Plant response rating, Kochia ([3]; 31 g ai/ha, scale 0 to 100): 50 | Plant response rating, Kochia ([3]; 62 g ai/ha, scale 0 to 100): 90 | Plant response rating, Kochia ([3]; 125 g ai/ha, scale of 0 to 100): 100 | Plant response rating, Galium ([4]; 16 g ai/ha, scale 0 to 100): 0 | Plant response rating, Galium ([4]; 31 g ai/ha, scale 0 to 100): 0 | Plant response rating, Galium ([4]; 62 g ai/ha, scale of 0 to 100): 5 | Plant response rating, Galium ([4]; 125 g ai/ha, scale of 0 to 100): 0 | Plant response rating, Surinam Grass ([5]; 16 g ai/ha, scale 0 to 100): 0 | Plant response rating, Surinam Grass ([5]; 31 g ai/ha, scale 0 to 100): 30 | Plant response rating, Surinam Grass ([5]; 62 g ai/ha, scale 0 to 100): 35 | Plant response rating, Surinam Grass ([5]; 125 g ai/ha, scale of 0 to 100): 80 | Plant response rating, Pigweed, Palmer ([6]; 16 g ai/ha, scale 0 to 100): 70 | Plant response rating, Pigweed, Palmer ([6]; 31 g ai/ha, scale 0 to 100): 100 | Plant response rating, Pigweed, Palmer ([6]; 62 g ai/ha, scale 0 to 100): 95 | Plant response rating, Pigweed, Palmer ([6]; 125 g ai/ha, scale of 0 to 100): 100 | Plant response rating, Poinsettia, Wild ([7]; 16 g ai/ha, scale 0 to 100): 10 | Plant response rating, Poinsettia, Wild ([7]; 31 g ai/ha, scale 0 to 100): 40 | Plant response rating, Poinsettia, Wild ([7]; 62 g ai/ha, scale 0 to 100): 35 | Plant response rating, Poinsettia, Wild ([7]; 125 g ai/ha, scale of 0 to 100): 35
